According to patent US9113629B2, “4-amino-6-(4-substituted-phenyl)-picolinates and 6-amino-2-(4-substituted-phenyl)-pyrimidine-4-carboxylates and their use as herbicides” (DOW AGROSCIENCES LLC, priority 2013, dated 2015):

System: not given
Assay: not given
Conditions: not given

melting point	SMILES
156 to 158 °C	C=Cc1c(N)nc(-c2ccc(F)c(F)c2F)nc1C(=O)OC [Compound 197, Methyl 6-amino-2-(2,3,4-trifluorophenyl)-5-vinylpyrimidine-4-carboxylate]

System: Key Broadleaf Weed and Crop Species
Assay: Post-emergent Test II herbicidal activity (Table 5)
Assay type: in vivo
Conditions: post-emergence, 336 h; ABUTH: velvetleaf (Abutilon theophrasti); 70 g ai/ha; post-emergent; 14 days after application; read-out: Visual Growth Reduction (%) 14 Days After Application ABUTH
Method in brief: (§1)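 Visual injury ratings (0 = no injury, 100 = complete kill) were taken 14 d after treatment, relative to untreated plants. Seedlings at the first–second true leaf stage received overhead spray at 187 L/ha; the highest rate was serially diluted to ½×, ¼×, ⅛× and 1/16×.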

SMILES	pest or weed control at 70 g/ha
C=Cc1c(N)nc(-c2ccc(F)c(F)c2F)nc1C(=O)OC [Compound 197, Methyl 6-amino-2-(2,3,4-trifluorophenyl)-5-vinylpyrimidine-4-carboxylate]	95 to 100%

Same assay, conditions: post-emergence, 336 h; ABUTH: velvetleaf (Abutilon theophrasti); 140 g ai/ha; post-emergent; 14 days after application; read-out: Visual Growth Reduction (%) 14 Days After Application ABUTH

SMILES	pest or weed control at 140 g/ha
C=Cc1c(N)nc(-c2ccc(F)c(F)c2F)nc1C(=O)OC [Compound 197, Methyl 6-amino-2-(2,3,4-trifluorophenyl)-5-vinylpyrimidine-4-carboxylate]	95 to 100%

Same assay, conditions: post-emergence, 336 h; AMARE: redroot pigweed (Amaranthus retroflexus); 70 g ai/ha; post-emergent; 14 days after application; read-out: Visual Growth Reduction (%) 14 Days After Application AMARE

SMILES	pest or weed control at 70 g/ha
C=Cc1c(N)nc(-c2ccc(F)c(F)c2F)nc1C(=O)OC [Compound 197, Methyl 6-amino-2-(2,3,4-trifluorophenyl)-5-vinylpyrimidine-4-carboxylate]	95 to 100%

Same assay, conditions: post-emergence, 336 h; AMARE: redroot pigweed (Amaranthus retroflexus); 140 g ai/ha; post-emergent; 14 days after application; read-out: Visual Growth Reduction (%) 14 Days After Application AMARE

SMILES	pest or weed control at 140 g/ha
C=Cc1c(N)nc(-c2ccc(F)c(F)c2F)nc1C(=O)OC [Compound 197, Methyl 6-amino-2-(2,3,4-trifluorophenyl)-5-vinylpyrimidine-4-carboxylate]	95 to 100%

Same assay, conditions: post-emergence, 336 h; BRSNN: oilseed-rape, canola (Brassica napus); 70 g ai/ha; post-emergent; 14 days after application; read-out: Visual Growth Reduction (%) 14 Days After Application BRSNN

SMILES	pest or weed control at 70 g/ha
C=Cc1c(N)nc(-c2ccc(F)c(F)c2F)nc1C(=O)OC [Compound 197, Methyl 6-amino-2-(2,3,4-trifluorophenyl)-5-vinylpyrimidine-4-carboxylate]	95 to 100%

Same assay, conditions: post-emergence, 336 h; BRSNN: oilseed-rape, canola (Brassica napus); 140 g ai/ha; post-emergent; 14 days after application; read-out: Visual Growth Reduction (%) 14 Days After Application BRSNN

SMILES	pest or weed control at 140 g/ha
C=Cc1c(N)nc(-c2ccc(F)c(F)c2F)nc1C(=O)OC [Compound 197, Methyl 6-amino-2-(2,3,4-trifluorophenyl)-5-vinylpyrimidine-4-carboxylate]	85 to 94%

Same assay, conditions: post-emergence, 336 h; CHEAL: lambsquarters (Chenopodium album); 70 g ai/ha; post-emergent; 14 days after application; read-out: Visual Growth Reduction (%) 14 Days After Application CHEAL

SMILES	pest or weed control at 70 g/ha
C=Cc1c(N)nc(-c2ccc(F)c(F)c2F)nc1C(=O)OC [Compound 197, Methyl 6-amino-2-(2,3,4-trifluorophenyl)-5-vinylpyrimidine-4-carboxylate]	95 to 100%

Same assay, conditions: post-emergence, 336 h; CHEAL: lambsquarters (Chenopodium album); 140 g ai/ha; post-emergent; 14 days after application; read-out: Visual Growth Reduction (%) 14 Days After Application CHEAL

SMILES	pest or weed control at 140 g/ha
C=Cc1c(N)nc(-c2ccc(F)c(F)c2F)nc1C(=O)OC [Compound 197, Methyl 6-amino-2-(2,3,4-trifluorophenyl)-5-vinylpyrimidine-4-carboxylate]	95 to 100%

Same assay, conditions: post-emergence, 336 h; EPHHL: wild poinsettia (Euphorbia heterophylla); 70 g ai/ha; post-emergent; 14 days after application; read-out: Visual Growth Reduction (%) 14 Days After Application EPHHL

SMILES	pest or weed control at 70 g/ha
C=Cc1c(N)nc(-c2ccc(F)c(F)c2F)nc1C(=O)OC [Compound 197, Methyl 6-amino-2-(2,3,4-trifluorophenyl)-5-vinylpyrimidine-4-carboxylate]	95 to 100%

Same assay, conditions: post-emergence, 336 h; EPHHL: wild poinsettia (Euphorbia heterophylla); 140 g ai/ha; post-emergent; 14 days after application; read-out: Visual Growth Reduction (%) 14 Days After Application EPHHL

SMILES	pest or weed control at 140 g/ha
C=Cc1c(N)nc(-c2ccc(F)c(F)c2F)nc1C(=O)OC [Compound 197, Methyl 6-amino-2-(2,3,4-trifluorophenyl)-5-vinylpyrimidine-4-carboxylate]	95 to 100%

Same assay, conditions: post-emergence, 336 h; HELAN: sunflower (Helianthus annuus); 70 g ai/ha; post-emergent; 14 days after application; read-out: Visual Growth Reduction (%) 14 Days After Application HELAN

SMILES	pest or weed control at 70 g/ha
C=Cc1c(N)nc(-c2ccc(F)c(F)c2F)nc1C(=O)OC [Compound 197, Methyl 6-amino-2-(2,3,4-trifluorophenyl)-5-vinylpyrimidine-4-carboxylate]	85 to 94%

Same assay, conditions: post-emergence, 336 h; HELAN: sunflower (Helianthus annuus); 140 g ai/ha; post-emergent; 14 days after application; read-out: Visual Growth Reduction (%) 14 Days After Application HELAN

SMILES	pest or weed control at 140 g/ha
C=Cc1c(N)nc(-c2ccc(F)c(F)c2F)nc1C(=O)OC [Compound 197, Methyl 6-amino-2-(2,3,4-trifluorophenyl)-5-vinylpyrimidine-4-carboxylate]	85 to 94%

Same assay, conditions: post-emergence, 336 h; VIOTR: wild pansy (Viola tricolor); 70 g ai/ha; post-emergent; 14 days after application; read-out: Visual Growth Reduction (%) 14 Days After Application VIOTR

SMILES	pest or weed control at 70 g/ha
C=Cc1c(N)nc(-c2ccc(F)c(F)c2F)nc1C(=O)OC [Compound 197, Methyl 6-amino-2-(2,3,4-trifluorophenyl)-5-vinylpyrimidine-4-carboxylate]	60 to 74%

Same assay, conditions: post-emergence, 336 h; VIOTR: wild pansy (Viola tricolor); 140 g ai/ha; post-emergent; 14 days after application; read-out: Visual Growth Reduction (%) 14 Days After Application VIOTR

SMILES	pest or weed control at 140 g/ha
C=Cc1c(N)nc(-c2ccc(F)c(F)c2F)nc1C(=O)OC [Compound 197, Methyl 6-amino-2-(2,3,4-trifluorophenyl)-5-vinylpyrimidine-4-carboxylate]	75 to 84%

System: Key Grass and Sedge Weeds as well as Grass Crops
Assay: Post-emergent Test II herbicidal activity (Table 6)
Assay type: in vivo
Conditions: Triticum aestivum, post-emergence, 336 h, TRZSS (wheat), application rate 70 g ai/ha, read-out: Visual Growth Reduction (%) 14 Days After Application, TRZSS
Method in brief: as §1

SMILES	pest or weed control at 70 g/ha
C=Cc1c(N)nc(-c2ccc(F)c(F)c2F)nc1C(=O)OC [Compound 197, Methyl 6-amino-2-(2,3,4-trifluorophenyl)-5-vinylpyrimidine-4-carboxylate]	0 to 29%

Same assay, conditions: Triticum aestivum, post-emergence, 336 h, TRZSS (wheat), application rate 140 g ai/ha, read-out: Visual Growth Reduction (%) 14 Days After Application, TRZSS

SMILES	pest or weed control at 140 g/ha
C=Cc1c(N)nc(-c2ccc(F)c(F)c2F)nc1C(=O)OC [Compound 197, Methyl 6-amino-2-(2,3,4-trifluorophenyl)-5-vinylpyrimidine-4-carboxylate]	0 to 29%

Same assay, conditions: post-emergence, 336 h, CYPES: yellow nutsedge (Cyperus esculentus), application rate 70 g ai/ha, read-out: Visual Growth Reduction (%) 14 Days After Application, CYPES

SMILES	pest or weed control at 70 g/ha
C=Cc1c(N)nc(-c2ccc(F)c(F)c2F)nc1C(=O)OC [Compound 197, Methyl 6-amino-2-(2,3,4-trifluorophenyl)-5-vinylpyrimidine-4-carboxylate]	60 to 74%

Same assay, conditions: post-emergence, 336 h, CYPES: yellow nutsedge (Cyperus esculentus), application rate 140 g ai/ha, read-out: Visual Growth Reduction (%) 14 Days After Application, CYPES

SMILES	pest or weed control at 140 g/ha
C=Cc1c(N)nc(-c2ccc(F)c(F)c2F)nc1C(=O)OC [Compound 197, Methyl 6-amino-2-(2,3,4-trifluorophenyl)-5-vinylpyrimidine-4-carboxylate]	60 to 74%

Same assay, conditions: post-emergence, 336 h, DIGSA: crabgrass (Digitaria sanguinalis), application rate 70 g ai/ha, read-out: Visual Growth Reduction (%) 14 Days After Application, DIGSA

SMILES	pest or weed control at 70 g/ha
C=Cc1c(N)nc(-c2ccc(F)c(F)c2F)nc1C(=O)OC [Compound 197, Methyl 6-amino-2-(2,3,4-trifluorophenyl)-5-vinylpyrimidine-4-carboxylate]	45 to 59%

Same assay, conditions: post-emergence, 336 h, DIGSA: crabgrass (Digitaria sanguinalis), application rate 140 g ai/ha, read-out: Visual Growth Reduction (%) 14 Days After Application, DIGSA

SMILES	pest or weed control at 140 g/ha
C=Cc1c(N)nc(-c2ccc(F)c(F)c2F)nc1C(=O)OC [Compound 197, Methyl 6-amino-2-(2,3,4-trifluorophenyl)-5-vinylpyrimidine-4-carboxylate]	60 to 74%

Same assay, conditions: post-emergence, 336 h, ECHCG: barnyardgrass (Echinochloa crus-galli), application rate 70 g ai/ha, read-out: Visual Growth Reduction (%) 14 Days After Application, ECHCG

SMILES	pest or weed control at 70 g/ha
C=Cc1c(N)nc(-c2ccc(F)c(F)c2F)nc1C(=O)OC [Compound 197, Methyl 6-amino-2-(2,3,4-trifluorophenyl)-5-vinylpyrimidine-4-carboxylate]	0 to 29%

Same assay, conditions: post-emergence, 336 h, ECHCG: barnyardgrass (Echinochloa crus-galli), application rate 140 g ai/ha, read-out: Visual Growth Reduction (%) 14 Days After Application, ECHCG

SMILES	pest or weed control at 140 g/ha
C=Cc1c(N)nc(-c2ccc(F)c(F)c2F)nc1C(=O)OC [Compound 197, Methyl 6-amino-2-(2,3,4-trifluorophenyl)-5-vinylpyrimidine-4-carboxylate]	75 to 84%

Same assay, conditions: post-emergence, 336 h, ORYSA: rice (Oryza sativa), application rate 70 g ai/ha, read-out: Visual Growth Reduction (%) 14 Days After Application, ORYSA

SMILES	pest or weed control at 70 g/ha
C=Cc1c(N)nc(-c2ccc(F)c(F)c2F)nc1C(=O)OC [Compound 197, Methyl 6-amino-2-(2,3,4-trifluorophenyl)-5-vinylpyrimidine-4-carboxylate]	0 to 29%

Same assay, conditions: post-emergence, 336 h, ORYSA: rice (Oryza sativa), application rate 140 g ai/ha, read-out: Visual Growth Reduction (%) 14 Days After Application, ORYSA

SMILES	pest or weed control at 140 g/ha
C=Cc1c(N)nc(-c2ccc(F)c(F)c2F)nc1C(=O)OC [Compound 197, Methyl 6-amino-2-(2,3,4-trifluorophenyl)-5-vinylpyrimidine-4-carboxylate]	0 to 29%

Same assay, conditions: post-emergence, 336 h, SETFA: giant foxtail (Setaria faberi), application rate 70 g ai/ha, read-out: Visual Growth Reduction (%) 14 Days After Application, SETFA

SMILES	pest or weed control at 70 g/ha
C=Cc1c(N)nc(-c2ccc(F)c(F)c2F)nc1C(=O)OC [Compound 197, Methyl 6-amino-2-(2,3,4-trifluorophenyl)-5-vinylpyrimidine-4-carboxylate]	0 to 29%

Same assay, conditions: post-emergence, 336 h, SETFA: giant foxtail (Setaria faberi), application rate 140 g ai/ha, read-out: Visual Growth Reduction (%) 14 Days After Application, SETFA

SMILES	pest or weed control at 140 g/ha
C=Cc1c(N)nc(-c2ccc(F)c(F)c2F)nc1C(=O)OC [Compound 197, Methyl 6-amino-2-(2,3,4-trifluorophenyl)-5-vinylpyrimidine-4-carboxylate]	0 to 29%

Same assay, conditions: post-emergence, 336 h, SORVU: grain sorghum (Sorghum vulgare), application rate 70 g ai/ha, read-out: Visual Growth Reduction (%) 14 Days After Application, SORVU

SMILES	pest or weed control at 70 g/ha
C=Cc1c(N)nc(-c2ccc(F)c(F)c2F)nc1C(=O)OC [Compound 197, Methyl 6-amino-2-(2,3,4-trifluorophenyl)-5-vinylpyrimidine-4-carboxylate]	60 to 74%

Same assay, conditions: post-emergence, 336 h, SORVU: grain sorghum (Sorghum vulgare), application rate 140 g ai/ha, read-out: Visual Growth Reduction (%) 14 Days After Application, SORVU

SMILES	pest or weed control at 140 g/ha
C=Cc1c(N)nc(-c2ccc(F)c(F)c2F)nc1C(=O)OC [Compound 197, Methyl 6-amino-2-(2,3,4-trifluorophenyl)-5-vinylpyrimidine-4-carboxylate]	60 to 74%

Same assay, conditions: post-emergence, 336 h, ZEAMX: maize, corn (Zea mays), application rate 70 g ai/ha, read-out: Visual Growth Reduction (%) 14 Days After Application, ZEAMX

SMILES	pest or weed control at 70 g/ha
C=Cc1c(N)nc(-c2ccc(F)c(F)c2F)nc1C(=O)OC [Compound 197, Methyl 6-amino-2-(2,3,4-trifluorophenyl)-5-vinylpyrimidine-4-carboxylate]	60 to 74%

Same assay, conditions: post-emergence, 336 h, ZEAMX: maize, corn (Zea mays), application rate 140 g ai/ha, read-out: Visual Growth Reduction (%) 14 Days After Application, ZEAMX

SMILES	pest or weed control at 140 g/ha
C=Cc1c(N)nc(-c2ccc(F)c(F)c2F)nc1C(=O)OC [Compound 197, Methyl 6-amino-2-(2,3,4-trifluorophenyl)-5-vinylpyrimidine-4-carboxylate]	60 to 74%
